Values joined by “and” are separate entries in the source; they are usually repeats but may differ in a detail not shown here. Identical values can stand only once. Like-named read-outs stand apart in the source and are kept apart here.
How the values were obtained:
[1] = UV-vis spectra of trans and PSS cis states in HBSS buffer; type: physicochemical; details: 25 μM in HBSS buffer containing 1% DMSO
Experimental: Experimental procedures – Photochemistry
UV−Vis spectra were recorded using a Thermo-scientific Evolution 201 PC spectrophotometer equipped with a thermostated cell holder set at 20 °C. Fits of UV−vis spectroscopy data were generated using Prism 10.1.0. Illumination for almost all photochemical experiments was executed using a Sutter instruments Lambda LS with a 300 W full-spectrum lamp connected to a Sutter instruments Lambda 10-3 optical filter changer equipped with 360 ± 10 nm, 434 ± 9 nm 494 ± 9 nm, or a Lambda 721 optical beam combiner system equipped with 365 ± 11 nm and 506 ± 14 nm filter. The light intensity used for the lambda 10-3 optical filter is 0.93 mW/mm2 using the 360 ± 20 nm filter, 0.79 mW/mm2 for the 434 ± 9 nm filter, 0.77 mW/mm2 for the 494 ± 9 nm filter as measured using a Thorlabs PM16−401 power meter. The light intensity used for the lambda 721 optical beam combiner is 200 mW using the 365 ± 11 nm filter and 60 mW for the 506 ± 12 nm filter. For photochemical analyses, illuminations were performed in Hellma Suprasil quartz 114QS cuvettes. For the dynamic illuminations, a 4-way cuvette holder (Avantes) was used. The left outlet of the holder is connected to an Avantes AvaLight-DH-S-BAL Deuterium lamp. The right outlet is connected through a fiber to an AvaSpec UV/Vis spectrometer. The lower outlet is connected to a Lambda 721 optical beam combiner system equipped with 365 ± 11 nm and 506 ± 14 nm filter illumination means. The upper outlet is covered with a black cap. The temperature of the solution in the cuvette (20 °C) is controlled by Q-blue Wireless Temperature Control software. […]
The typical distance […]
between light source and vial or cuvette was 2 cm.

Nluc-H2R = Nluc-H2R (Homo sapiens, UniProt P25021); type: binding; details: trans isomer; at concentrations lower than 1 μM; competition with 50 nM UR-KAT478
Sequence of Nluc-H2R (P25021 whole entry): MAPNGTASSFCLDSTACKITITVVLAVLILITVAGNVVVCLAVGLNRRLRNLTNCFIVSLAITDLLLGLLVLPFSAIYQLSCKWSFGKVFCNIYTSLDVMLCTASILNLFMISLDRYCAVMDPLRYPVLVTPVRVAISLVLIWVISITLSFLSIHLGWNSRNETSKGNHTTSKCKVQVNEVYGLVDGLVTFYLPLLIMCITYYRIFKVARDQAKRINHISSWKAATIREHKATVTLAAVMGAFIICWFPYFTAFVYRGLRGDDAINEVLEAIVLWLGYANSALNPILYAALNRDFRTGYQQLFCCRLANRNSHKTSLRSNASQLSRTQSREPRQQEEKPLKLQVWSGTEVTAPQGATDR

hH3R = hH3R (Homo sapiens, UniProt Q9Y5N1); experiment: Competition binding of non-labeled ligands with trans-[3H]3f on hH3R-expressing cell homogenates; details: read-out: pKi in competition with trans-[3H]3f (converted)
Sequence of hH3R (Q9Y5N1 whole entry): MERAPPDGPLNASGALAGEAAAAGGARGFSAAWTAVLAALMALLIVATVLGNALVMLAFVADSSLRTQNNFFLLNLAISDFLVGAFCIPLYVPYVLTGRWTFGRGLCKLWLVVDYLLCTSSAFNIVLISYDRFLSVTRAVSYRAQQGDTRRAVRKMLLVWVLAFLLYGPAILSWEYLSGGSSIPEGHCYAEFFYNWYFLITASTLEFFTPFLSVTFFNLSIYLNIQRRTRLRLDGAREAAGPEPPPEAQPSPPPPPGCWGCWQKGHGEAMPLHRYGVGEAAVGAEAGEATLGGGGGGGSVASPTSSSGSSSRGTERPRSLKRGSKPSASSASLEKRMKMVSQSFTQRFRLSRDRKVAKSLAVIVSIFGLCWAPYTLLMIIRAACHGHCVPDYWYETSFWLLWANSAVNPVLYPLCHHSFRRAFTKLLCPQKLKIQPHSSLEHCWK

H3R = H3R (Homo sapiens, UniProt Q9Y5N1); experiment: [3H]NAMH competition radioligand binding on cell homogenates overexpressing H3R; details: for Ki: [3H]NAMH competition, n = 3
Sequence of H3R (Q9Y5N1 whole entry): as above

Question: For Cc1nn(C2CCN(C)CC2)c(C)c1/N=N/c1ccc(O[C@H]2C[C@H](N3CCCCC3)C2)cc1 [Compound 3f], which λmax cis [1] is on record?
Answer: Its λmax cis is 439 nm.

Question: And the λmax trans [1]?
Answer: The λmax trans was 348 nm.

Question: And the “binding to H2R” value (Nluc-H2R)?
Answer: The value was “does not bind”.

Question: And the Ki (hH3R; unlabeled PSS cis state)?
Answer: The Ki was 20 nM.

Question: What about the Ki (hH3R; unlabeled trans isomer) of the same compound?
Answer: Its Ki is 1 nM.

Question: And the “Fold Ki shift” value (H3R; (high-affinity state)/(low-affinity state), ↓ lower affinity of PSS cis state than trans)?
Answer: Its value is 50 fold and 50.1 ↓ fold.

Question: What about the Ki (H3R; pKi PSScis ± SEM, PSS cis state) of the same compound?
Answer: The Ki was 25.1 nM.

Question: And the Ki (H3R; pKi trans ± SEM, trans isomer)?
Answer: Its Ki is 0.501 nM.

Reference: PMC12257542, “A Radiolabeled Photoswitchable G Protein-Coupled Receptor Antagonist Enlightens Ligand Binding Kinetics Associated with Photoswitching” (Journal of the American Chemical Society, 2025)
